The term IC50 denotes the point on the concentration scale where inhibition reaches its midpoint.

The target in this assay is T1, Serum Glucocorticoid-regulated Kinase-1 (SGK-1) (Homo sapiens, UniProt O00141, S422D).
T1 construct: a truncated form of the human enzyme that included amino acids 61-431; 6xHis (N); made in house
T1 sequence (O00141 61-431 S422D): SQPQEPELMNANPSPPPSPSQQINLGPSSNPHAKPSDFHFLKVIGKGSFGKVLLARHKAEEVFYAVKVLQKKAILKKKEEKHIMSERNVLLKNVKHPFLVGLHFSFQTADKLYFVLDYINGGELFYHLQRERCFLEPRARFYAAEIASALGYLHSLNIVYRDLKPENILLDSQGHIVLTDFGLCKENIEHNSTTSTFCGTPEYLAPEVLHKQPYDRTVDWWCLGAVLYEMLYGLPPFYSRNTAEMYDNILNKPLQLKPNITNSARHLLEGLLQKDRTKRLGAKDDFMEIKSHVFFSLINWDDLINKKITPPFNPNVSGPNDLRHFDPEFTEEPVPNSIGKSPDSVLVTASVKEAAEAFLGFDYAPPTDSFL
Description: SGK-1 Enzyme Assay (SGK1e), substrate phosphorylation, scintillation proximity. Type of assay: biochemical. The settings on record: truncated human SGK-1 (aa 61-431, S422D), 10 μM ATP, Crosstide substrate. As to the method:
Compounds of the present invention were tested for Serum Glucocorticoid-regulated Kinase-1 (SGK-1) protein serine/threonine kinase inhibitory activity in substrate phosphorylation assays using enzyme purified from a baculovirus expression vector system. The recombinant baculovirus was made to express the intracellular domain of SGK-1 (GenBank accession number MD41091). The virus expressed a truncated form of the human enzyme that included amino acids 61-431. Serine422 was replaced with Aspartic acid to activate the enzyme, and 6 Histidine residues were added at the amino terminus to facilitate purification. The protein was purified using Ni-NTA agarose affinity chromatography. The peptide substrate was an N-terminal biotinylated sunthetic peptide named Crosstide (biotin-Ahx-GRPRTSSFAEG-OH), corresponding to the sequence in GSK3 surrounding the serine phosphorylated by MAPKAP Kinase-1/Rsk and p70 S6 Kinase.
The method measures the ability of the isolated enzyme to catalyze the transfer of the γ-phosphate from ATP onto serine/threonine residues in the biotinylated Crosstide. Reactions were performed in 96-well polystyrene round-bottom plates in a final volume of 30 uL. Reaction mixtures contained 62.5 mM HEPES (pH 7.4), 10 mM MgCl2, 0.1 mM EDTA, 0.0024% TWEEN-20, and 1 mM DTT (added fresh daily), 10 μM ATP, 0.2 μCi [[v-^33P] ATP per reaction, 4 μM Crosstide peptide substrate, and 1 nM SGK1 enzyme. Reactions were initiated by adding the indicated enzyme. The reaction was allowed to proceed for 2 hours, then terminated by the addition of 50 mM EDTA and quantified using a scintillation proximity assay procedure as described (McDonald, O. B., Antonsson, B., Arkinstal, S., Marshall, C. J., and Wood, E. R. (1999) Analytical Biochemistry, 268, 318-329).
Compounds under analysis were dissolved in Me2SO to 1 mM and serially diluted 1 to 3 with Me2SO through eleven columns of a 96 well plate. 1 uL of each concentration was transferred to the corresponding well of the assay plate. This created a final compound concentration range from 0.56 nM to 33.3 uM.
The data for dose responses were plotted as % Control calculated with the data reduction formula 100*(U1-C2)/(C1-C2) versus concentration of compound and fitted to the curve described by:
where Vmax is the upper asymptote and K is the IC50
(Scintillation proximity formats need no separation of bound from free tracer.)

`COc1cc(NC(=O)/C=C/c2n[nH]c3ccccc23)ccc1OCCN(C(C)C)C(C)C` [Example 15, (2E)-N-[4-[2-(diisopropylamino)ethoxy]-3-methoxyphenyl]-3-(1H-indazol-3-yl)-2-propenamide] gave an IC50 of less than 1000 nM.
In the case of `CCCN(C)CCOc1ccc(NC(=O)/C=C/c2n[nH]c3ccccc23)cc1OC` [Example 19, (2E)-3-(1H-indazol-3-yl)-N-(3-methoxy-4-{2-[methyl(propyl)amino]ethoxy}phenyl)-2-propenamide] it was less than 1000 nM; in that of `CCOC(=O)C1CCN(C(=O)/C=C/c2n[nH]c3ccccc23)CC1` [Example 27, Ethyl 1-[(2E)-3-(1H-indazol-3-yl)prop-2-enoyl]piperidine-4-carboxylate], 1000 to 10000 nM; in that of `CCN(Cc1ccncc1)C(=O)c1cccc(NC(=O)/C=C/c2n[nH]c3ccccc23)c1` [Example 41, N-ethyl-3-(((2E)-3-(1H-indazol-3-yl)prop-2-enoyl)amino)-N-(pyridin-4-ylmethyl)benzamide], less than 1000 nM.
As to `O=C(/C=C/c1n[nH]c2ccccc12)Nc1cccc(C(=O)c2ccccc2)c1` [Example 12, (2E)-N-(3-benzoylphenyl)-3-(1H-indazol-3-yl)-2-propenamide], the IC50 was less than 1000 nM.
The compound `N#Cc1ccccc1NC(=O)/C=C/c1n[nH]c2ccccc12` [Example 3, (2E)-N-(2-cyanophenyl)-3-(1H-indazol-3-yl)-2-propenamide] came in with an IC50 of less than 1000 nM.
Compound `CC(C)CNC(=O)/C=C/c1n[nH]c2ccccc12` [Example 24, (2E)-3-(1H-indazol-3-yl)-N-isobutylprop-2-enamide] showed an IC50 of 1000 to 10000 nM.
Compound `O=C(/C=C/c1n[nH]c2ccccc12)N1CCC2(CC1)C(=O)NCN2c1ccccc1` [Example 30, 8-[(2E)-3-(1H-indazol-3-yl)prop-2-enoyl]-1-phenyl-1,3,8-triazaspiro[4.5]decan-4-one] displayed an IC50 of less than 1000 nM.
`O=C(/C=C/c1n[nH]c2ccccc12)Nc1ccc2ncsc2c1` [Example 1, (2E)-N-(1,3-benzothiazol-6-yl)-3-(1H-indazol-3-yl)-2-propenamide] came in with a 50% inhibitory concentration (IC50) of less than 1000 nM.
In the case of `O=C(/C=C/c1n[nH]c2ccccc12)Nc1ccc(C(=O)NCCc2cccnc2)cc1` [Example 36, 4-(((2E)-3-(1H-indazol-3-yl)prop-2-enoyl)amino)-N-(2-pyridin-3-ylethyl)benzamide] it was less than 1000 nM.

The values above are taken from patent US20080058515A1, “Chemical Compounds” (priority 2003, published 2008).
